Data from article PMC6985722 (Antimicrobial Agents and Chemotherapy, 2020).
Several values for one entry are separate records, joined by “and”; a condition that tells them apart may be missing. Equal values may be shown once.

Experiment: RSV human challenge study: safety (adverse events, clinical and laboratory tests, ECG)
Assay type: in vivo
Settings: for TEAE Abdominal discomfort / TEAE Abdominal distention / TEAE Abdominal pain (Table 4) / TEAE Abdominal pain (Table S4, listed apart from Abdominal pain lower) / TEAE Abdominal pain lower / TEAE Blood and lymphatic system disorders / TEAE Cardiac disorders / TEAE Catheter site erythema / TEAE Catheter site paraesthesia / TEAE Decreased appetite / TEAE Diarrhea / TEAE Dizziness / TEAE Epistaxis / TEAE Eye disorders / TEAE Eye pain / TEAE Food poisoning / TEAE Gastroenteritis / TEAE Gastrointestinal disorders / TEAE General disorders and administration site conditions / TEAE Headache / TEAE Hypoaesthesia / TEAE Infections and infestations / TEAE Injury, poisoning and procedural complications / TEAE Joint injury / TEAE Lip dry / TEAE Lymphadenopathy / TEAE Metabolism and nutrition disorders / TEAE Musculoskeletal and connective tissue disorders / TEAE Musculoskeletal pain / TEAE Myalgia / TEAE Myocarditis / TEAE Nausea / TEAE Nervous system disorders / TEAE Ocular hyperemia / TEAE Oropharyngeal pain / TEAE Pain in jaw / TEAE Pyrexia / TEAE Rash / TEAE Respiratory, thoracic and mediastinal disorders / TEAE Rhinitis / TEAE Skin abrasion / TEAE Skin and subcutaneous tissue disorders / TEAE Tension headache / TEAE Total / TEAE URTI / TEAE Vessel puncture site erythema / TEAE Viral URTI / TEAE Vomiting: safety analysis set
Description: Twice-daily collection of nasal wash samples allowed measurement of viral load via RT-qPCR and quantitative culture. RT-qPCR results were reported as PFUe/ml when the standard curve included in each assay contained a known infectious amount (PFU) of RSV, as described previously ([30]). Subjects reported the occurrence and severity of symptoms three times daily using a 10-item subject symptom diary card as previously reported ([12]) (see Supplemental Methods). Throughout the quarantine period, used tissues were collected and weighed daily, and total nasal mucus weight was recorded. PK assessments were based on venous blood samples. Safety assessments included measurement of vital signs, standard 12-lead ECG recordings, spirometry, a complete physical examination, and a respiratory-directed physical examination. AEs were monitored daily, coded according to the Medical Dictionary for Regulatory Activities Version 20.0, and graded according to the National Cancer Institute Common Terminology Criteria for Adverse Events Version 4.0 (see Supplemental Methods for further details).
The primary efficacy analysis population (the ITT-I analysis set) comprised all randomized subjects who received challenge virus and at least one dose of study drug and met the criterion for laboratory-confirmed RSV infection (presence of detectable RSV). Sensitivity analyses were based on a subset of the ITT-I population who had first detectable RSV infection prior to study drug administration (the ITT-A analysis set) and a fixed time period of 6.5 days (comprising data for all subjects for 6.5 days of evaluation after the first dose, regardless of the staggered commencement of dosing). The safety analysis set comprised all subjects who received challenge virus; the PK analysis set comprised all subjects who received the challenge virus and provided at least one postdose PK result. […]
unexpected, in the opinion of the investigator, were captured as AEs. Following the viral challenge, upper and lower respiratory tract symptoms identified by the directed physical examination were expected, presumed to represent virus infection consequent to viral challenge and not captured as an AE unless they met the criteria for an AE and were deemed clinically significant in the opinion of the investigator. AEs were monitored daily from screening (day –2) through to the follow -up visit (day 28) and coded to system organ class and preferred term according to the Medical Dictionary for Regulatory Activities Version
20.0. AEs were graded according to the National Cancer Institute Common Terminology Criteria for Adverse Events Version 4.0, andthe relationship to the investigational medical product or to challenge virus was recorded. An AE with an onset date/time after […]
that were considered by the investigator to be causally related to challenge virus can be included in the analysis of AEs.
Outcomes. Safety outcomes included the occurrence of AEs. PK outcomes included the maximum plasma concentration, the minimum plasma concentration, the time to maximum plasma concentration, and the area under the plasma concentration-time curve with a dosing interval, calculated by the linear trapezoidal rule.

With `NCc1ccc2c(c1)nc(CN1C(=O)C3(CC3)c3ccc(F)cc31)n2CCCC(F)(F)F` [RV521] the “Grade 2 TEAEs, number of events” value (200 mg) was 2, the “Subjects with gastrointestinal TEAEs” value (200 mg) was 32% and the “Subjects with grade 2 TEAEs” value (200 mg) was 2 subjects. The “Treatment-emergent AEs, number of events” value (200 mg) was 19, the “Clinical or laboratory tests (vital signs, liver enzymes) vs placebo” value (200 mg and 350 mg) was “No notable differences” and the ECG findings (200 mg and 350 mg) was “no clinically significant ECG findings”. The “TEAEs of grade ≥3” value (200 mg and 350 mg) was “no TEAEs of grade ≥3”, the “TEAE Abdominal discomfort” value (200 mg) was 0 number of subjects (%) and the “TEAE Abdominal distention” value (200 mg) was 0 number of subjects (%). The “TEAE Abdominal pain (Table 4)” value (200 mg) was 2 (9) No. of subjects (%), the “TEAE Abdominal pain (Table S4, listed apart from Abdominal pain lower)” value (200 mg) was 2 (9) number of subjects (%) and the “TEAE Abdominal pain lower” value (200 mg) was 0 number of subjects (%). For the same compound, the “TEAE Blood and lymphatic system disorders” value (200 mg) was 0 number of subjects (%), the “TEAE Cardiac disorders” value (200 mg) was 0 number of subjects (%) and the “TEAE Catheter site erythema” value (200 mg) was 0 number of subjects (%). For the same compound, the “TEAE Catheter site paraesthesia” value (200 mg) was 1 (5) number of subjects (%), the “TEAE Decreased appetite” value (200 mg) was 1 (5) number of subjects (%) and the “TEAE Diarrhea” value (200 mg) was 3 (14) No. of subjects (%). The “TEAE Dizziness” value (200 mg) was 1 (5) number of subjects (%), the “TEAE Epistaxis” value (200 mg) was 1 (5) number of subjects (%) and the “TEAE Eye disorders” value (200 mg) was 0 number of subjects (%). For the same compound, the “TEAE Eye pain” value (200 mg) was 0 number of subjects (%), the “TEAE Food poisoning” value (200 mg) was 1 (5) number of subjects (%) and the “TEAE Gastroenteritis” value (200 mg) was 0 number of subjects (%). For the same compound, the “TEAE Gastrointestinal disorders” value (200 mg) was 7 (32) number of subjects (%), the “TEAE General disorders and administration site conditions” value (200 mg) was 1 (5) number of subjects (%) and the “TEAE Headache” value (200 mg) was 0 No. of subjects (%). For the same compound, the “TEAE Hypoaesthesia” value (200 mg) was 1 (5) number of subjects (%), the “TEAE Infections and infestations” value (200 mg) was 3 (14) number of subjects (%) and the “TEAE Injury, poisoning and procedural complications” value (200 mg) was 1 (5) number of subjects (%). For the same compound, the “TEAE Joint injury” value (200 mg) was 0 number of subjects (%), the “TEAE Lip dry” value (200 mg) was 0 number of subjects (%) and the “TEAE Lymphadenopathy” value (200 mg) was 0 number of subjects (%). For the same compound, the “TEAE Metabolism and nutrition disorders” value (200 mg) was 1 (5) number of subjects (%), the “TEAE Musculoskeletal and connective tissue disorders” value (200 mg) was 0 number of subjects (%) and the “TEAE Musculoskeletal pain” value (200 mg) was 0 number of subjects (%). The “TEAE Myalgia” value (200 mg) was 0 number of subjects (%), the “TEAE Myocarditis” value (200 mg) was 0 number of subjects (%) and the “TEAE Nausea” value (200 mg) was 2 (9) No. of subjects (%). The “TEAE Nervous system disorders” value (200 mg) was 2 (9) number of subjects (%), the “TEAE Ocular hyperemia” value (200 mg) was 0 number of subjects (%) and the “TEAE Oropharyngeal pain” value (200 mg) was 0 number of subjects (%). For the same compound, the “TEAE Pain in jaw” value (200 mg) was 0 number of subjects (%), the “TEAE Pyrexia” value (200 mg) was 0 number of subjects (%) and the “TEAE Rash” value (200 mg) was 0 No. of subjects (%). For the same compound, the “TEAE Respiratory, thoracic and mediastinal disorders” value (200 mg) was 1 (5) number of subjects (%), the “TEAE Rhinitis” value (200 mg) was 1 (5) No. of subjects (%) and the “TEAE Skin abrasion” value (200 mg) was 1 (5) number of subjects (%). For the same compound, the “TEAE Skin and subcutaneous tissue disorders” value (200 mg) was 1 (5) number of subjects (%), the “TEAE Tension headache” value (200 mg) was 0 number of subjects (%) and the “TEAE Total” value (200 mg) was 11 (50) number of subjects (%) and 11 number of subjects (%). For the same compound, the “TEAE URTI” value (200 mg) was 2 (9) No. of subjects (%), the “TEAE Vessel puncture site erythema” value (200 mg) was 0 number of subjects (%) and the “TEAE Viral URTI” value (200 mg) was 0 No. of subjects (%). For the same compound, the “TEAE Vomiting” value (200 mg) was 1 (5) No. of subjects (%), the “Grade 2 TEAEs, number of events” value (350 mg) was 4 and the “Subjects with gastrointestinal TEAEs” value (350 mg) was 59%. The “Subjects with grade 2 TEAEs” value (350 mg) was 3 subjects, the “TEAE Abdominal discomfort” value (350 mg) was 1 (5) number of subjects (%) and the “TEAE Abdominal distention” value (350 mg) was 1 (5) number of subjects (%). For the same compound, the “TEAE Abdominal pain (Table 4)” value (350 mg) was 5 (23) No. of subjects (%), the “TEAE Abdominal pain (Table S4, listed apart from Abdominal pain lower)” value (350 mg) was 4 (18) number of subjects (%) and the “TEAE Abdominal pain lower” value (350 mg) was 1 (5) number of subjects (%). The “TEAE Blood and lymphatic system disorders” value (350 mg) was 0 number of subjects (%), the “TEAE Cardiac disorders” value (350 mg) was 0 number of subjects (%) and the “TEAE Catheter site erythema” value (350 mg) was 1 (5) number of subjects (%). For the same compound, the “TEAE Catheter site paraesthesia” value (350 mg) was 0 number of subjects (%), the “TEAE Decreased appetite” value (350 mg) was 0 number of subjects (%) and the “TEAE Diarrhea” value (350 mg) was 9 (41) No. of subjects (%). For the same compound, the “TEAE Dizziness” value (350 mg) was 1 (5) number of subjects (%), the “TEAE Epistaxis” value (350 mg) was 0 number of subjects (%) and the “TEAE Eye disorders” value (350 mg) was 0 number of subjects (%). The “TEAE Eye pain” value (350 mg) was 0 number of subjects (%), the “TEAE Food poisoning” value (350 mg) was 0 number of subjects (%) and the “TEAE Gastroenteritis” value (350 mg) was 1 (5) number of subjects (%). For the same compound, the “TEAE Gastrointestinal disorders” value (350 mg) was 13 (59) number of subjects (%), the “TEAE General disorders and administration site conditions” value (350 mg) was 1 (5) number of subjects (%) and the “TEAE Headache” value (350 mg) was 0 No. of subjects (%). The “TEAE Hypoaesthesia” value (350 mg) was 0 number of subjects (%), the “TEAE Infections and infestations” value (350 mg) was 5 (23) number of subjects (%) and the “TEAE Injury, poisoning and procedural complications” value (350 mg) was 0 number of subjects (%). The “TEAE Joint injury” value (350 mg) was 0 number of subjects (%), the “TEAE Lip dry” value (350 mg) was 1 (5) number of subjects (%) and the “TEAE Lymphadenopathy” value (350 mg) was 0 number of subjects (%). The “TEAE Metabolism and nutrition disorders” value (350 mg) was 0 number of subjects (%), the “TEAE Musculoskeletal and connective tissue disorders” value (350 mg) was 1 (5) number of subjects (%) and the “TEAE Musculoskeletal pain” value (350 mg) was 0 number of subjects (%). For the same compound, the “TEAE Myalgia” value (350 mg) was 1 (5) number of subjects (%), the “TEAE Myocarditis” value (350 mg) was 0 number of subjects (%) and the “TEAE Nausea” value (350 mg) was 12 (55) No. of subjects (%). The “TEAE Nervous system disorders” value (350 mg) was 1 (5) number of subjects (%), the “TEAE Ocular hyperemia” value (350 mg) was 0 number of subjects (%) and the “TEAE Oropharyngeal pain” value (350 mg) was 0 number of subjects (%). For the same compound, the “TEAE Pain in jaw” value (350 mg) was 0 number of subjects (%), the “TEAE Pyrexia” value (350 mg) was 0 number of subjects (%) and the “TEAE Rash” value (350 mg) was 0 No. of subjects (%). For the same compound, the “TEAE Respiratory, thoracic and mediastinal disorders” value (350 mg) was 0 number of subjects (%), the “TEAE Rhinitis” value (350 mg) was 2 (9) No. of subjects (%) and the “TEAE Skin abrasion” value (350 mg) was 0 number of subjects (%). The “TEAE Skin and subcutaneous tissue disorders” value (350 mg) was 1 (5) number of subjects (%), the “TEAE Tension headache” value (350 mg) was 0 number of subjects (%) and the “TEAE Total” value (350 mg) was 16 (73) number of subjects (%). For the same compound, the “TEAE URTI” value (350 mg) was 0 No. of subjects (%), the “TEAE Vessel puncture site erythema” value (350 mg) was 0 number of subjects (%) and the “TEAE Viral URTI” value (350 mg) was 2 (9) No. of subjects (%). For the same compound, the “TEAE Vomiting” value (350 mg) was 2 (9) No. of subjects (%) and the “Treatment-related SAEs, deaths, or discontinuations due to AEs” value (any treatment group) was “No treatment-related serious adverse events (SAEs), deaths, or discontinuations due to AEs”.
